The values below come from patent publication US8263606B2 (Xenon Pharmaceuticals Inc., priority 2008, dated 2012).

A value given as a limit tells only on which side of the number the result lay.

For data set [1], the target named is CYP3A4 (Homo sapiens, UniProt P08684). As to the kind of experiment: Cytochrome P450 (CYP450) Inhibition Assay, CYP3A4 (Vivid fluorescence, BOMCC substrate). The note with it: human, P450 Baculosomes (recombinant CYP3A4), probe BOMCC (Vivid substrate).
CYP3A4, sequence (P08684 whole entry): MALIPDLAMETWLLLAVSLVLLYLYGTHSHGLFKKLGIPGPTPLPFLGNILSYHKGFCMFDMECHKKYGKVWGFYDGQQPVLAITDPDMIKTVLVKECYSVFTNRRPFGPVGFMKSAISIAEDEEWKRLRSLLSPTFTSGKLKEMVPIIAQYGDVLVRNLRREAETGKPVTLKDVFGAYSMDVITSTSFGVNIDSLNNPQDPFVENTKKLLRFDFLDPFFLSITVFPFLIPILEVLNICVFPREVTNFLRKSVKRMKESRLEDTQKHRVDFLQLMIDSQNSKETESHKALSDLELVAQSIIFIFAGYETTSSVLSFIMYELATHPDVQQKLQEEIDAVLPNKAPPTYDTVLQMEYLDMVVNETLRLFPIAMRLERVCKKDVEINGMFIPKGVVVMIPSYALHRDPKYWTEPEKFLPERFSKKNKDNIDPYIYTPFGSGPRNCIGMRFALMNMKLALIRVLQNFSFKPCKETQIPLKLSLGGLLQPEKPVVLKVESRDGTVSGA

Regarding `COCCNC(=O)c1cccc2c1C1(COc3cc4c(cc31)OCCO4)C(=O)N2C` (stereo not shown) [Example 16.43, N-(2-methoxyethyl)-1′-methyl-2′-oxo-1′,2,2′,3-tetrahydrospiro[furo[2,3-g][1,4]benzodioxine-8,3′-indole]-4′-carboxamide], the melting point (as a rule, the temperature of the solid-liquid transition) lay within 97 to 100 °C. Besides, the inhibition (usually how much of the control response was suppressed) at 10 µM in data set [1] was less than 50%.

Consider `CN1C(=O)C2(COc3cc4c(cc32)OCCO4)c2c(C(=O)NCc3ccc(F)cc3)cccc21` (stereo not shown) [Example 16.44, N-(4-fluorobenzyl)-1′-methyl-2′-oxo-1′,2,2′,3-tetrahydrospiro[furo[2,3-g][1,4]benzodioxine-8,3′-indole]-4′-carboxamide], for which the melting point lay within 149 to 150 °C. For the same compound, in data set [1], the inhibition at 10 µM is less than 50%.

`CCCCCCNC(=O)c1cccc2c1C1(COc3cc4c(cc31)OCCO4)C(=O)N2C` (stereo not shown) [Example 16.45, N-hexyl-1′-methyl-2′-oxo-1′,2,2′,3-tetrahydrospiro[furo[2,3-g][1,4]benzodioxine-8,3′-indole]-4′-carboxamide] displayed a melting point of 172 to 173 °C. Further, the inhibition at 10 µM in data set [1] is more than 50%.

For `CN1C(=O)C2(COc3cc4c(cc32)OCCO4)c2c(C(=O)NCc3ccccn3)cccc21` (stereo not shown) [Example 16.46, 1′-methyl-2′-oxo-N-(pyridin-2-ylmethyl)-1′,2,2′,3-tetrahydrospiro[furo[2,3-g][1,4]benzodioxine-8,3′-indole]-4′-carboxamide], the melting point was 214 to 215 °C. Besides, the inhibition at 10 µM in data set [1] is less than 50%.

As to `CN1C(=O)C2(COc3cc4c(cc32)OCCO4)c2c(C(=O)Nc3ccc(F)cc3)cccc21` (stereo not shown) [Example 16.47, N-(4-fluorophenyl)-1′-methyl-2′-oxo-1′,2,2′,3-tetrahydrospiro[furo[2,3-g][1,4]benzodioxine-8,3′-indole]-4′-carboxamide], the melting point was more than 250 °C. Besides, the inhibition at 10 µM in data set [1] is less than 50%.

Compound `Nc1cccc2c1C1(COc3cc4c(cc31)OCCO4)C(=O)N2Cc1ncccc1C(F)(F)F` (stereo not shown) [Example 16.50, 4′-amino-1′-{[3-(trifluoromethyl)pyridin-2-yl]methyl}-2,3-dihydrospiro[furo[2,3-g][1,4]benzodioxine-8,3′-indol]-2′(1′H)-one] displayed a melting point of 243 to 245 °C. Further, the inhibition at 10 µM in data set [1] was less than 50%.

The compound `O=C1Nc2cccc(O)c2C12COc1cc3c(cc12)OCCO3` (stereo not shown) [Example 16.51, 4′-hydroxy-2,3-dihydrospiro[furo[2,3-g][1,4]benzodioxine-8,3′-indol]-2′(1′H)-one] returned a melting point of more than 250 °C. In addition, the inhibition at 10 µM in data set [1] is less than 50%.

Regarding `CN1C(=O)C2(COc3cc4c(cc32)OCCO4)c2c(O)cccc21` (stereo not shown) [Example 16.52, 4′-hydroxy-1′-methyl-2,3-dihydrospiro[furo[2,3-g][1,4]benzodioxine-8,3′-indol]-2′(1′H)-one], the melting point is more than 250 °C. Further, the inhibition at 10 µM in data set [1] is less than 50%.

In the case of `CN1C(=O)C2(COc3cc4c(cc32)OCCO4)c2c(Oc3ccccn3)cccc21` (stereo not shown) [Example 16.53, 1′-methyl-4′-(pyridin-2-yloxy)-2,3-dihydrospiro[furo[2,3-g][1,4]benzodioxine-8,3′-indol]-2′(1′H)-one], the melting point was in the range of 219 to 221 °C. For the same compound, the inhibition at 10 µM in data set [1] is more than 50%.

Compound `COCCOCCOc1cccc2c1C1(COc3cc4c(cc31)OCCO4)C(=O)N2C` (stereo not shown) [Example 16.54, 4′-[2-(2-methoxyethoxy)ethoxy]-1′-methyl-2,3-dihydrospiro[furo[2,3-g][1,4]benzodioxine-8,3′-indol]-2′(1′H)-one] had a melting point of 109 to 110 °C. Further, the inhibition at 10 µM in data set [1] was less than 50%.

For `CN1C(=O)C2(COc3cc4c(cc32)OCCO4)c2c(Oc3ncccc3C(F)(F)F)cccc21` (stereo not shown) [Example 16.55, 1′-methyl-4′-{[3-(trifluoromethyl)pyridin-2-yl]oxy}-2,3-dihydrospiro[furo[2,3-g][1,4]benzodioxine-8,3′-indol]-2′(1′H)-one], the melting point was more than 250 °C. Besides, the inhibition at 10 µM in data set [1] is more than 50%.

`CN1C(=O)C2(COc3cc4c(cc32)OCCO4)c2c(Oc3ccc(C(F)(F)F)cc3)cccc21` (stereo not shown) [Example 16.56, 1′-methyl-4′-[4-(trifluoromethyl)phenoxy]-2,3-dihydrospiro[furo[2,3-g][1,4]benzodioxine-8,3′-indol]-2′(1′H)-one] gave a melting point of 198 to 201 °C. In addition, the inhibition at 10 µM in data set [1] is more than 50%.

Compound `CN1C(=O)C2(COc3cc4c(cc32)OCCO4)c2c(OCc3ccccc3)cccc21` (stereo not shown) [Example 16.57, 4′-(benzyloxy)-1′-methyl-2,3-dihydrospiro[furo[2,3-g][1,4]benzodioxine-8,3′-indol]-2′(1′H)-one] returned a melting point of 198 to 200 °C. Moreover, in data set [1], the inhibition at 10 µM was more than 50%.

Regarding `CN1C(=O)C2(COc3cc4c(cc32)OCCO4)c2c(OCc3ncccc3C(F)(F)F)cccc21` (stereo not shown) [Example 16.58, 1′-methyl-4′-{[3-(trifluoromethyl)pyridin-2-yl]methoxy}-2,3-dihydrospiro[furo[2,3-g][1,4]benzodioxine-8,3′-indol]-2′(1′H)-one], the melting point lay in the range of 157 to 159 °C. Besides, the inhibition at 10 µM in data set [1] is more than 50%.

Regarding `CN1C(=O)[C@@]2(COc3cc4c(cc32)OCO4)c2c(Br)cccc21` [Example 16.63, (7R)-4′-bromo-1′-methylspiro[furo[2,3-f][1,3]benzodioxole-7,3′-indol]-2′(1′H)-one], the melting point was in the range of 226 to 228 °C. Moreover, the inhibition at 10 µM in data set [1] is more than 50%.

Take `CN1C(=O)[C@]2(COc3cc4c(cc32)OCO4)c2c(Br)cccc21` [Example 16.64, (7S)-4′-bromo-1′-methylspiro[furo[2,3-f][1,3]benzodioxole-7,3′-indol]-2′(1′H)-one]: the melting point lay within 226 to 227 °C. The inhibition at 10 µM in data set [1] was more than 50%.

On to `O=C1Nc2cccc(-c3ccoc3)c2[C@]12COc1cc3c(cc12)OCO3` [Example 16.65, (7S)-4′-furan-3-ylspiro[furo[2,3-f][1,3]benzodioxole-7,3′-indol]-2′(1′H)-one], for which the melting point was 230 to 231 °C. Moreover, the inhibition at 10 µM in data set [1] is more than 50%.

As to `O=C1Nc2cccc(-c3ccoc3)c2[C@@]12COc1cc3c(cc12)OCO3` [Example 16.66, (7R)-4′-furan-3-ylspiro[furo[2,3-f][1,3]benzodioxole-7,3′-indol]-2′(1′H)-one], the melting point fell in the range of 229 to 231 °C. Also, the inhibition at 10 µM in data set [1] was more than 50%.

For `CN1C(=O)C2(COc3cc4c(cc32)OCCO4)c2c(-c3cc[nH]n3)cccc21` (stereo not shown) [Example 16.67, 1′-methyl-4′-(1H-pyrazol-3-yl)-2,3-dihydrospiro[furo[2,3-g][1,4]benzodioxine-8,3′-indol]-2′(1′H)-one], the melting point lay in the range of 201 to 202 °C. Also, the inhibition at 10 µM in data set [1] is more than 50%.

In the case of `CN1C(=O)C2(COc3cc4c(cc32)OCCO4)c2c(-c3ccoc3)cccc21` (stereo not shown) [Example 16.68, 4′-furan-3-yl-1′-methyl-2,3-dihydrospiro[furo[2,3-g][1,4]benzodioxine-8,3′-indol]-2′(1′H)-one], the melting point is 178 to 180 °C. In data set [1], the inhibition at 10 µM was more than 50%.
